# Experimental data published in US20220127232A1, “HISTONE ACETYLTRANSFERASE MODULATORS AND COMPOSITIONS AND USES THEREOF” (The Trustees of Columbia University in the City of New York, priority 2019, published 2022).
# “Also recorded” adds a separate entry of the source. Like-named read-outs stand apart in the source and are kept apart here.
# How the values were obtained:
# [1] = cited from earlier work
# [2] = Stability in human liver microsomes; type: in vitro ADME
# Experimental: Some compounds were tested for stability in human liver microsomes as shown below in Table 2.
# Mixed-gender human liver microsomes (Lot #1010420) were purchased from XenoTech. The reaction mixture, minus NADPH, was prepared as described below. The test article was added into the reaction mixture at a final concentration of 1 μM. The control compound, testosterone, was run simultaneously with the test article in a separate reaction. An aliquot of the reaction mixture (without cofactor) was equilibrated in a shaking water bath at 37° C. for 3 minutes. The reaction was initiated by the addition of the cofactor, and the mixture was incubated in a shaking water bath at 37° C. Aliquots (100 μL) were withdrawn at 0, 10, 20, 30, and 60 minutes. Test article and testosterone samples were immediately combined with 400 μL of ice-cold 50/50 acetonitrile (ACN)/H2O containing 0.1% formic acid and internal standard to terminate the reaction. The samples were then mixed and centrifuged to precipitate proteins. All samples were assayed by LC-MS/MS using electrospray ionization. Analytical conditions are outlined in Appendix 1. The peak area response ratio (PARR) to internal standard was compared to the PARR at time 0 to determine the percent remaining at each time point. Half-lives and clearance were calculated using GraphPad software, fitting to a single-phase exponential decay equation.
# Liver Microsomes 0.5 mg/mL NADPH (cofactor) 1 mM
# Potassium Phosphate, pH 7.4 100 mM
# Intrinsic clearance (CLint) was calculated based on CLint=k/P, where k is the elimination constant and P is the protein concentration in the incubation.
# [3] = tested on: hippocampal slices from WT mice; assay: Long-term potentiation (LTP) in hippocampal slices perfused with oTau or oAβ; type: cell-based; conditions: slices perfused with compound and either oTau (50 nM) or oAβ (200 nM)
# Excerpt: Synaptic dysfunction is a major hallmark of AD (Histol Histopathol, 1995. 10(2): p. 509-19; herein incorporated by reference in its entirety). An aspect of the drug screening protocol can include a measurement of the effect of compounds onto synaptic function. Amyloid-beta (Aβ) is a toxic peptide that is thought to underlie subtle amnesic changes occurring at early stages of Alzheimer's disease. It impairs both memory and its electrophysiological surrogate, long-term potentiation (LTP). LTP can be examined because it is a type of synaptic plasticity thought to underlie learning and memory. RA010115 can rescue the Aβ-induced reduction of LTP, and other compounds can also be screened to identify those that can re-establish normal LTP. The compounds can be applied for 20 min. Controls can be performed on slices in the absence of Aβ, and mice treated with compound. Tau is another peptide that is involved in cell to cell communication, and impairs both memory and LTP in animal models of AD and other tauopathies. FIG. 26 is a graph showing that RA010115 rescues oligomeric Tau (oTau)- and oligomeric Aβ (o Aβ)-induced LTP deficits. LTP was impaired in hippocampal slices from WT mice perfused with oTau (50 nM) and oAβ (200 nM), whereas there was no impairment in slices treated with RA10115 or vehicle. LTP was restored in slices perfused with RA010115 and either oTau or oAβ. The horizontal solid bar represents oAβ and oTau perfusion while the horizontal dashed bar represents RA010115. The three arrows correspond to the theta-burst stimulation. […]
# [4] = target: p300 (Homo sapiens, UniProt Q09472); assay: Histone Acetyltransferase (HAT) in vitro acetylation assay, western blot of H3K27ac / H3K18ac; type: biochemical; conditions: compound in DMSO, EC50 for activators
# Experimental: The aim of the in vitro acetylation assay is to measure the enzymatic activity of the various compounds towards p300.
# First, the drug is prepared:
# Second, dilute p300 in AM1 buffer to a concentration of 40 ng/μL (final concentration in the reaction 20 ng/μL). This is accomplished by diluting 1 μL of p300 (at 0.4 μg/μL) into […] of AM1 buffer.
# Third, prepare the Master Mix. Prepare the Master Mix in low protein binding tubes (ThermoFisher Cat. No. 90410), 20 μL system.
# Incubate reactions at 30° C. for 30 minutes.
# Incubate reactions at 30° C. for 1 hour.
# Fourth, perform the western blot assay. • Add 6.7 μL of Laemmli Sample Buffer 4× (Bio-Rad Laboratories Cat. No. 161-0737) for each reaction and boil samples at 95° C. for 5 min. • Charge 10 μL for each sample in 2 Tris Glycine 4-15% gels (Bio-Rad Laboratories Cat. No. 456-1086). Running Buffer: Tris-Glycine 1× (pour in the cell up to the writing “2 gels”). • Run at 90 V for 1 hour (until the gel front reaches the green line of cell). • Semi-dry transfer with Trans-Blot® Turbo™ Blotting System from Bio-Rad Laboratories (Trans-Blot® Turbo™ RTA midi PVDF transfer kit Cat. No1704275). • Activate PVDF membrane in methanol for 5 minutes and then wet in Trans-Blot® Turbo™ transfer buffer. • Wet stacks in transfer buffer. • Transfer at 23 V 1.3 A for 7 minutes. • Blocking buffer: 5% Non-Fat milk in TBST (tween 0.1%) 1 hour at room temperature. • Cut the membranes to get Ac-His 3 at 17 kDa and p300 at 300 kDa. • Incubate with primary antibodies overnight at 4° C. • The day after, make 3 washes in TBST (Tween 0.1%) of 10 minutes. • Incubate with secondary antibody at room temperature for 1 hour. • Make 3 washes in TBST (Tween 0.1%) of 5 minutes. • Incubate membranes with ECL (SuperSignal West Dura Extended Duration Substrate from ThermoFisher) for 5 minutes at room temperature. • Acquire the image with ChemiDoc Odyssey Fc 2 minutes.
# To detect total H3 (loading control), strip the membranes with Restore™ Western Blot Stripping Buffer according to the manufacturer protocol.
# Various compounds were tested for enzymatic activity with respect to Lys 18 and Lys 27. EC50 is indicated for Activators and IC50 for inhibitors respectively.
# FIGS. 1A to 25B are graphs showing the lysine residue acetylation as a function of concentration for the compounds set forth in Table 3. The shaded area corresponds to the average values of lysine residue acetylation (continuous line) and their standard error range measured in the absence of compound and DMSO. The number of replicates is represented by “n”.
# Chain of p300 (Q09472 whole entry, species assumed): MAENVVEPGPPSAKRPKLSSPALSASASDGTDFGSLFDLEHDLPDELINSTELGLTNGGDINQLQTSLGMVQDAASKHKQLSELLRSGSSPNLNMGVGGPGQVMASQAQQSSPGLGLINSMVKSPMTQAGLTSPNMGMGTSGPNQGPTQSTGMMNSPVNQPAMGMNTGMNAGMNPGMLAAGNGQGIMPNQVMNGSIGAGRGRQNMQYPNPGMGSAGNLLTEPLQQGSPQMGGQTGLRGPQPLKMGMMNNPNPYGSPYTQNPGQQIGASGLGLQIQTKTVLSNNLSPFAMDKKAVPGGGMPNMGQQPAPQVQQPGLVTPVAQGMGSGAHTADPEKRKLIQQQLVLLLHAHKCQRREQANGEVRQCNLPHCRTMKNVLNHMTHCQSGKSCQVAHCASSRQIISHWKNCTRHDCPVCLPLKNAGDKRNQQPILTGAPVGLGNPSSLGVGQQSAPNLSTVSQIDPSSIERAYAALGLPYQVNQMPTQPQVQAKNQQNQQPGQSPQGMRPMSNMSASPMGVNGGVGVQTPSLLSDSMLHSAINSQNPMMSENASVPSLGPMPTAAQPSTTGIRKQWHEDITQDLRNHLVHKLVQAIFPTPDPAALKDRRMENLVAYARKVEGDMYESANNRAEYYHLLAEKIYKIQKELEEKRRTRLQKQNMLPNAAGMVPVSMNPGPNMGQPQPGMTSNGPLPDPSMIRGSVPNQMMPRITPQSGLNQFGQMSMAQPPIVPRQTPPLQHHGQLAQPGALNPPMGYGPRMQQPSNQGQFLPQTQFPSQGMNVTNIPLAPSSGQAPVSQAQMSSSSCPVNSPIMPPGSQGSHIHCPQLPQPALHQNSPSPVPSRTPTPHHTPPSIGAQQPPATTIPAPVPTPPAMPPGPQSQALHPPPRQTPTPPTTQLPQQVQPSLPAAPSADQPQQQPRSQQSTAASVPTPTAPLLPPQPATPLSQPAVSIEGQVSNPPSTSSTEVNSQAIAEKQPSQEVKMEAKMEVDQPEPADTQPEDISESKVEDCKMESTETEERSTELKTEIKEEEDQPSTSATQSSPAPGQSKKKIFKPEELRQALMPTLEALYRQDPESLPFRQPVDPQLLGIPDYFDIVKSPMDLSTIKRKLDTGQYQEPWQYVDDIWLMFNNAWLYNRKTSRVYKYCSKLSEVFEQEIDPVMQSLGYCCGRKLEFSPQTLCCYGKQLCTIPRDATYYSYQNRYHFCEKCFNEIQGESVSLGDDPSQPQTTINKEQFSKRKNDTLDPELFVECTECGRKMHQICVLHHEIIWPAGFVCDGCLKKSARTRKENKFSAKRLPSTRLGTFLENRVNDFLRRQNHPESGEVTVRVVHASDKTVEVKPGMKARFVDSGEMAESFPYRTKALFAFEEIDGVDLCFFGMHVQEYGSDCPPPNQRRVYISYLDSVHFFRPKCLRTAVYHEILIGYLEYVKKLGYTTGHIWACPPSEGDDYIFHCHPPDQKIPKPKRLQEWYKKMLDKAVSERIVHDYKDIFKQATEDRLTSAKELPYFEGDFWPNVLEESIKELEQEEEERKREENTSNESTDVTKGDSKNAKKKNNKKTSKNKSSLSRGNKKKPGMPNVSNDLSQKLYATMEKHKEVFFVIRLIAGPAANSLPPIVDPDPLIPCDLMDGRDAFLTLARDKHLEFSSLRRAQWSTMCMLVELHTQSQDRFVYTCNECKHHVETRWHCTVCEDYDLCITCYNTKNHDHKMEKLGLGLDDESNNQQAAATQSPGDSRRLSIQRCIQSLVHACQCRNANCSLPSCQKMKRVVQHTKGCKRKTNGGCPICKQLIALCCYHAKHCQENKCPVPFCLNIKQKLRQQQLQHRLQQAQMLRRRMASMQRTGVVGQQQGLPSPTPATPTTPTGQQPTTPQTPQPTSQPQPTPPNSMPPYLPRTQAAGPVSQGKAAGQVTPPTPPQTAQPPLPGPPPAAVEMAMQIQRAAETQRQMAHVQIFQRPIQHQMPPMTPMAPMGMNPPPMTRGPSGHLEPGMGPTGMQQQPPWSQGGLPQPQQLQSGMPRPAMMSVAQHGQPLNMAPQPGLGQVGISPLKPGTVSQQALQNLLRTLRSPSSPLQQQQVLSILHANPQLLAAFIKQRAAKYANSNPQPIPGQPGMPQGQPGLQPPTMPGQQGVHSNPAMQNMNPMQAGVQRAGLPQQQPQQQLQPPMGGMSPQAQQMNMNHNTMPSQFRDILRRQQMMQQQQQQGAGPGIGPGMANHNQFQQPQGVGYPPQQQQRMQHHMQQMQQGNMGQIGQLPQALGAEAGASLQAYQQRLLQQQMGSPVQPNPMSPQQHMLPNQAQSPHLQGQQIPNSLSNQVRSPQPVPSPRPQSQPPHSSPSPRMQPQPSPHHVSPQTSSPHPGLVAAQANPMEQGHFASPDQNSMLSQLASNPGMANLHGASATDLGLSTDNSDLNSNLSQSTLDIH
Compound,Solubility [1],"microsomal CLint at 1 μM ([2]; both sexes, human, liver microsomes, pH 7.4, human liver microsomes, 1 μM, read-out: CLint) [µL/min/mg]","half-life at 1 μM ([2]; both sexes, human, liver microsomes, pH 7.4, human liver microsomes, 1 μM, read-out: Half-life) [min]","% Remaining of Initial (n = 1) 0 min ([2]; human liver microsomes, test article 1 μM, 0 min) [%]","% Remaining of Initial (n = 1) 10 min ([2]; human liver microsomes, test article 1 μM, 10 min) [%]","% Remaining of Initial (n = 1) 20 min ([2]; human liver microsomes, test article 1 μM, 20 min) [%]","% Remaining of Initial (n = 1) 30 min ([2]; human liver microsomes, test article 1 μM, 30 min) [%]","% Remaining of Initial (n = 1) 60 min ([2]; human liver microsomes, test article 1 μM, 60 min) [%]",oTau- and oAβ-induced LTP deficits [3],EC50 ([4]; read-out: H3-Lys 18 EC50) [nM],EC50 ([4]; read-out: H3-Lys 27 EC50) [nM]
CCCCCCCCCCCCCCCc1cccc(OCC)c1C(=O)Nc1ccc(Cl)c(C(F)(F)F)c1 [CTPB],insoluble,,,,,,,,,,
CCOc1cccc(OCCN(C)C)c1C(=O)Nc1ccc(Cl)c(C(F)(F)F)n1 [RA013915],,43.2,32.1,100,79.6,63.8,52.4,27.6,restored; also recorded: rescues,72.6,57.6
CCOc1ccccc1C(=O)Nc1ccc(Cl)c(C(F)(F)F)c1 [CTB],insoluble,,,,,,,,,,
